Assay results: patent US20050267166A1, “Continuous dosing regimen” (priority 2004, published 2005)
Marks after values point to notes of the source that are not given here.

How the values were obtained:
[1] = test system: C26 colon tumors; test: C26 colon tumors grown in the flank of CDF-1 mice; format: in vivo
[2] = test system: intestinal tumors of Apc^Min (Min) mice; test: Apc Min mice spontaneous intestinal tumorigenesis model; format: in vivo; conditions: orally once-a-day for 28 days at 150 mg/kg/day; vehicle controls 73.3
Description: Apc^Min (Min) mice are models for genetically inherited intestinal cancer. These mice carry a dominant germline mutation in the Apc tumor suppressor gene that predisposes them to the development of numerous (>50) tumors throughout the intestinal tract.
The average tumor number for treated mice was 49.8 compared to 73.3 for vehicle controls. Drug treatment was initiated at an age when the tumors were well-established.

[3] = test system: HCT-15 human colon carcinoma; test: HCT-15 human colon carcinoma xenografts; format: in vivo
Description: HCT-15 is a human colon carcinoma derived cell line. It is MDR positive, and expresses both mutant p53 and oncogenic K-ras. The HCT-15 cell line has one of the highest levels of mdr-1/P-glycoprotein expression of cells from the NCI tumor cell line panel.
Effect of Cytotoxic Agents on the Growth of HCT-15 Human Colon Carcinoma Xenografts

[4] = test system: MiaPaCa-2 pancreatic; test: MiaPaCa-2 orthotopic tumor model; format: in vivo, human; conditions: for % T/C: orthotopic, d 1-5, 11-15
Description: (2-((4-hydroxyphenyl)amino)pyrid-3-yl)-4-methoxybenzenesulfonamide inhibited the growth of a variety of human tumor xenografts that were allowed to grow into established tumors prior to the initiation of treatment. As summarized below, activity was seen against established tumors derived from colon, breast and lung carcinomas. (2-((4-hydroxyphenyl)amino)pyrid-3-yl)-4-methoxybenzenesulfonamide was also active against a human pancreatic tumor xenograft grown in the orthotopic site.

[5] = test system: HT-1376 bladder; test: HT-1376 orthotopic tumor model; format: in vivo, human; conditions: d 1-5, 11-15
[6] = test system: H-111 gastric cancer; test: human tumor xenograft in nude mice, H-111; format: in vivo; conditions: Q1D × 19, 80 mg/kg/day
[7] = test system: H-154 gastric cancer; test: human tumor xenograft in nude mice, H-154; format: in vivo; conditions: Q5D × 5, 300 mg/kg/day
[8] = test system: SC-2 gastric cancer; test: human tumor xenograft in nude mice, SC-2; format: in vivo; conditions: Q1D × 19, 120 mg/kg/day
[9] = test system: H-143 colorectal cancer; test: human tumor xenograft in nude mice, H-143; format: in vivo; conditions: Q5D × 5, 300 mg/kg/day
[10] = test system: COLO320DM colorectal cancer; test: human tumor xenograft in nude mice, COLO320DM; format: in vivo; conditions: Q1D × 19, 120 mg/kg/day
[11] = test system: WiDr colorectal cancer; test: human tumor xenograft in nude mice, WiDr; format: in vivo; conditions: Q1D × 20, 100 mg/kg/day
[12] = test system: LC-376 lung cancer; test: human tumor xenograft in nude mice, LC-376; format: in vivo; conditions: Q5D × 5, 300 mg/kg/day
[13] = test system: LC-11 lung cancer; test: human tumor xenograft in nude mice, LC-11; format: in vivo; conditions: Q1D × 8, 150 mg/kg/day
[14] = test system: MX-1 breast cancer; test: human tumor xenograft in nude mice, MX-1; format: in vivo; conditions: Q5D × 5, 450 mg/kg/day
[15] = test system: KB oral cancer; test: human tumor xenograft in nude mice, KB; format: in vivo; conditions: Q1D × 20, 100 mg/kg/day
[16] = pharmacokinetics in cancer subjects, single dose and 5-day repeated dose; format: in vivo, human
Protocol: (§1) (2-((4-hydroxyphenyl)amino)pyrid-3-yl)-4-methoxybenzenesulfonamide was evaluated in 57 cancer subjects in single dose (16 subjects) and 5-day repeated dose regimens (41 subjects). The doses administered in the single dose segment were 80 to 480 mg/m^2/day. In the 5-day repeated dose regimen (2-((4-hydroxyphenyl)amino)pyrid-3-yl)-4-methoxybenzenesulfonamide was given at 30 to 240 mg/m^2/day for a single cycle. […] Adverse drug reactions from the single dose and 5-day repeated dose segments included nausea and vomiting, diarrhea, epigastric pain, ileus and evidence of peripheral neuropathy. For the single dose segment, the dose limiting toxicity (DLT) was Grade 3 peripheral neuropathy in 1 of 5 subjects at 480 mg/m^2/day. In the 5-day repeated dose regimen the dose limiting toxicities were Grade 3 peripheral neuropathy in 1 of 4 subjects at 210 mg/m^2/day and Grade 4 intestinal paralysis in 1 of 4 subjects at 210 mg/m^2/day and in 1 of 6 subjects at 240 mg/m^2/day.

[17] = dose limiting toxicity in cancer subjects, single dose and 5-day repeated dose; format: in vivo, human
Protocol: as §1

[18] = adverse side effects reported in 134 patients; format: in vivo, human; conditions: of 134 patients; 200-300 mg QD, 125-175 mg BID
Protocol: For 134 patients tested, at doses of about 200 mg QD, 250 mg QD, 300 mg QD, 125 mg BID, 150 mg BID, and 175 mg BID, 16 reported anemia, of which 11 were Grades I or II and 5 were Grades (III or IV); 1 reported Grade I or II alpoecia; 8 reported Grade I or II neutropenia; and none reported fluid retention, for which Grade I is defined as mild, Grade II is defined as moderate, Grade III is defined as severe, Grade IV is defined as life threatening.

[19] = tolerability of continuous 21 day once per day dosing in xenograft mice; format: in vivo, nude mice; conditions: 50 mg/kg/day
[20] = in vivo; conditions: mouse, po
[21] = 5-day repeated dose, 210 mg/m^2/day

Compound: COc1ccc(S(=O)(=O)Nc2cccnc2Nc2ccc(O)cc2)cc1 [ABT-751, N-(2-((4-hydroxyphenyl)amino)pyrid-3-yl)-4-methoxybenzenesulfonamide]
- antitumor activity against C26 colon tumors ([1]; 5-day schedule): only marginally active
- antitumor activity against C26 colon tumors ([1]; extended dosing): significant antitumor response
- average tumor number [2]: 49.8
- % ILS ([3]; 50 mg/kg/d PO, QD, days 1-8): 34%
- T/C ([3]; 50 mg/kg/d PO, QD, days 1-8, 2 trials): 50 (2)
- efficacy in HCT-15 xenografts ([3]; in words): effective in inhibiting tumor growth
- antitumor activity in combination with gemcitabine compared to single agent alone ([4]; in combination with gemcitabine, MiaPaCa2 pancreatic xenograft): increase in antitumor activity
- % T/C ([4]; oral 75 mg/kg/d QD): 79%
- % T/C ([4]; oral 100 mg/kg/d QD): 56%
- % T/C ([5]; oral 100 mg/kg/d QD): 63%
- % T/C ([5]; oral 100 mg/kg/d b.i.d.): 86^e %
- T/C (%) [6]: 36%
- T/C (%) [7]: 71%
- T/C (%) [8]: 28%
- T/C (%) [9]: 17%
- T/C (%) [10]: 42%
- T/C (%) [11]: 22%
- T/C (%) [12]: 18%
- T/C (%) [13]: 93%
- T/C (%) [14]: 21%
- T/C (%) [15]: 15%
- half-life ([16]; human, plasma, cancer subjects, single dose and 5-day repeated dose, read-out: elimination half-life): 240 to 960 min
- AUC versus dose ([16]; range of 30 to 480 mg/m^2/day): increased proportionally with dose
- dose limiting toxicity: Grade 3 peripheral neuropathy, subjects affected [17, 21]: 1 of 4
- dose limiting toxicity: Grade 4 intestinal paralysis, subjects affected [17, 21]: 1 of 4
- dose limiting toxicity: Grade 4 intestinal paralysis, subjects affected ([17]; 5-day repeated dose, 240 mg/m^2/day): 1 of 6
- dose limiting toxicity: Grade 3 peripheral neuropathy, subjects affected ([17]; single dose, 480 mg/m^2/day): 1 of 5
- patients reporting Grade I or II alopecia [18]: 1
- patients reporting Grade I or II neutropenia [18]: 8
- patients reporting anemia [18]: 16
- patients reporting anemia Grades I or II [18]: 11
- patients reporting anemia Grades III or IV [18]: 5
- patients reporting fluid retention [18]: none
- adverse side effects [19]: essentially without adverse side effects
- MTD [20]: ~150 mg/kg
